# Results: patent US20110245242A1, “Heterocyclically Substituted Anilinopyrimides” (Bayer CropScience AG, priority 2008, published 2011)
# Experiment: log P by HPLC on reversed-phase columns (C 18), method [a], acidic range pH 2.3
# Type: physicochemical
# Settings: pH 2.3
# Procedure: The log P values were measured in accordance with EEC Directive 79/831 Annex V.A8 by HPLC (High Performance Liquid Chromatography) on reversed-phase columns (C 18) using the methods below: [a] The determination was carried out in the acidic range at pH 2.3 using the mobile phases 0.1% aqueous phosphoric acid and acetronitrile linear gradient from 10% acetonitrile to 95% acetronitrile.
row,log p,Structure (SMILES)
1,2.54[a],CC(C)CC1COC(=O)N1c1cccc(Nc2ncc(Cl)c(NC3CC3)n2)c1 (centres unmarked) [Example 47]
2,1.05[a],CNc1nc(Nc2cccc(N3CCCC3=O)c2)ncc1Cl [Example 38]
3,2.83[a],CC(C)CC1COC(=O)N1c1cccc(Nc2ncc(Cl)c(NC3CCC3)n2)c1 (centres unmarked) [Example 49]
4,2.41[a],CC(C)C1COC(=O)N1c1cccc(Nc2ncc(Cl)c(NC3CCC3)n2)c1 (centres unmarked) [Example 46]
5,3.05[a],CC(C)CC1COC(=O)N1c1cccc(Nc2ncc(Br)c(NC3CCC3)n2)c1 (centres unmarked) [Example 50]
6,2.42,"CCCNc1nc(Cl)ncc1Cl [Example V-38, 2,5-Dichloro-N-propylpyrimidin-4-amine]"
7,2.24[a],CC(C)C1COC(=O)N1c1cccc(Nc2ncc(Br)c(NC3CC3)n2)c1 (centres unmarked) [Example 45]
8,1.53[a],COCC(C)Nc1nc(Nc2cccc(N3CCCC3=O)c2)ncc1Cl (centres unmarked) [Example 2]
9,1.29[a],O=C1CCCCN1c1cccc(Nc2ncc(F)c(NC3CCC3)n2)c1 [Example 58]
10,2.42[a],CCC1=C(C)CN(c2cccc(Nc3ncc(Br)c(NC4CC4)n3)c2)C1=O [Example 232]
11,2.1[a],O=C1CCC(c2ccccc2)N1c1cccc(Nc2ncc(Cl)c(NC3CC3)n2)c1 (centres unmarked) [Example 87]
12,1.7[a],O=C1CCCCCN1c1cccc(Nc2ncc(Cl)c(NC3CC3)n2)c1 [Example 55]

row,Structure (SMILES),log p
1,CC(C)CC1COC(=O)N1c1cccc(Nc2ncc(Br)c(NC3CC3)n2)c1 (centres unmarked) [Example 48],2.69[a]
2,C[C@@H]1COC(=O)N1c1cccc(Nc2ncc(Cl)c(NC3CC3)n2)c1 [Example 103],1.8[a]

# Same assay, conditions: pH 2.3, log P (pH 2.3)
row,Structure (SMILES),chromatographic logP
1,"CC1CN(c2cccc(N)c2)C(=O)O1 (centres unmarked) [3-(3-Aminophenyl)-5-methyl-1,3-oxazolidin-2-one]",0.33
2,CCOC(=O)[C@@H]1CCC(=O)N1c1cccc(N)c1 [Ethyl 1-(3-aminophenyl)-5-oxo-L-prolinate],0.84
3,COc1cc(N)cc(N2CCCC2=O)c1 [1-(3-Amino-5-methoxyphenyl)pyrrolidin-2-one],0.6
4,"Nc1cccc(N2CCOC2=O)c1 [3-(3-Aminophenyl)-1,3-oxazolidin-2-one]",-0.18
5,COc1cc(NC(=O)CCCCl)cc([N+](=O)[O-])c1 [4-Chloro-N-(3-methoxy-5-nitrophenyl)butanamide],2.46
6,CCC1CCC(=O)N1c1cccc(N)c1 (centres unmarked) [1-(3-Aminophenyl)-5-ethylpyrrolidin-2-one],0.94
7,"CC1(C)CC(=O)N(c2cccc([N+](=O)[O-])c2)C1=O [3,3-Dimethyl-1-(3-nitrophenyl)pyrrolidine-2,5-dione]",2.01

# The next lines start with the values.
row,chromatographic logP,Structure (SMILES)
1,3.47,"CC1CC(Nc2nc(Cl)ncc2Br)C1 (centres unmarked) [Example V-6, 5-Bromo-2-chloro-N-(3-methylcyclobutyl)pyrimidin-4-amine]"
2,2.84,"Brc1ccc(Nc2ncc(Br)c(NCC3CC3)n2)cc1 [VII-9, 5-Bromo-N^2-(4-bromophenyl)-N^4-(cyclopropylmethyl)pyrimidine-2,4-diamine]"
3,3.99,"FC(F)(F)Oc1ccc(Nc2ncc(Cl)c(NC3CC3)n2)cc1Br [VII-3, 5-Chloro-N^2-[3-bromo-4-(trifluoromethoxy)phenyl]-N^4-cyclopropylpyrimidine-2,4-diamine]"
4,2.84,"Clc1ncc(Cl)c(N2CCSCC2)n1 [Example V-32, 4-(2,5-Dichloropyrimidin-4-yl)thiomorpholine]"
5,3.55,"Clc1ccc(Nc2ncc(Cl)c(NC3CC3)n2)cc1Br [VII-6, N^2-(3-Bromo-4-chlorophenyl)-5-chloro-N^4-cyclopropylpyrimidine-2,4-diamine]"
6,2.68,"CC1CC1Nc1nc(Cl)ncc1Br (centres unmarked) [Example V-41, 5-Bromo-2-chloro-N-(2-methylcyclopropyl)pyrimidin-4-amine]"
7,3.52,"Clc1ncc(Cl)c(N2CCCCC2)n1 [Example V-36, 2,5-Dichloro-4-(piperidin-1-yl)pyrimidine]"
8,1.31,"Clc1ncc(Cl)c(NC2COC2)n1 [Example V-29, 2,5-Dichloro-N-(oxetan-3-yl)pyrimidin-4-amine]"
9,2.11,"Clc1ncc(Cl)c(N2CCC2)n1 [Example V-35, 4-(Azetidin-1-yl)-2,5-dichloropyrimidine]"
10,2.75,"COCC(C)Nc1nc(Cl)ncc1C(F)(F)F (centres unmarked) [Example V-3, 2-Chloro-N-(3-methoxypropan-2-yl)-5-trifluoromethylpyrimidin-4-amine]"
11,3.02,"CC1CC1Nc1nc(Cl)ncc1C(F)(F)F (centres unmarked) [Example V-42, 2-Chloro-N-(2-methylcyclopropyl)-5-(trifluoromethyl)pyrimidin-4-amine]"
12,1.96,"FC(F)CNc1nc(Cl)ncc1Cl [Example V-2, 2,5-Dichloro-N-(2,2-difluoroethyl)pyrimidin-4-amine]"
13,3.49,"Clc1cnc(Nc2ccc(I)cc2)nc1NC1CCC1 [VII-12, 5-Chloro-N^4-cyclobutyl-N^2-(4-iodophenyl)pyrimidine-2,4-diamine]"
14,2.26,"FC(F)(F)CNc1nc(Cl)ncc1Cl [Example V-5, 2,5-Dichloro-N-(2,2,2-trifluoroethyl)pyrimidin-4-amine]"
15,2.17,"Fc1cnc(Cl)nc1NC1CCC1 [Example V-28, 5-Fluoro-2-chloro-N-cyclobutylpyrimidin-4-amine]"
16,3.04,"CC1(C)CC1Nc1nc(Cl)ncc1Cl (centres unmarked) [Example V-27, 2,5-Dichloro-N-(2,2-dimethylcyclopropyl)pyrimidin-4-amine]"
17,2.66,"CC(Nc1nc(Cl)ncc1Cl)C(F)(F)F (centres unmarked) [Example V-37, 2,5-Dichloro-N-(1,1,1-trifluoropropan-2-yl)pyrimidin-4-amine]"

# Experiment: log P by LC-MS, method [b], acid range pH 2.7
# Type: physicochemical
# Settings: pH 2.7
# Procedure: The log P values were measured in accordance with EEC Directive 79/831 Annex V.A8 by HPLC (High Performance Liquid Chromatography) on reversed-phase columns (C 18) using the methods below:
# [b] The LC-MS determination in the acid range was carried out at pH 2.7 using the mobile phases 0.1% aqueous formic acid and acetonitrile (contains 0.1% formic acid)
# linear gradient from 10% acetonitrile to 95% acetonitrile.
row,log p,Structure (SMILES)
1,1.49[b],CCCNc1nc(Nc2cccc(N3CCCC3=O)c2)ncc1Cl [Example 307]
2,1.78[b],CC1COC(=O)N1c1ccc(Nc2ncc(Br)c(NCC(F)F)n2)cc1 (centres unmarked) [Example 165]
3,1.91[b],CC1CCC(=O)N1c1cccc(Nc2ncc(Br)c(NCC(F)F)n2)c1 (centres unmarked) [Example 167]
4,1.54[b],COCC(C)Nc1nc(Nc2cccc(N3CCOC3=O)c2)ncc1Cl (centres unmarked) [Example 67]
5,1.83[b],O=C1OCCN1c1ccc(Nc2ncc(Cl)c(NCC(F)(F)F)n2)cc1 [Example 23]
6,2.1[b],CC(C)Nc1nc(Nc2cccc(N3C(=O)OC[C@@H]3C(C)C)c2)ncc1Cl [Example 110]
7,1.78[b],CC1CC(=O)N(c2cccc(Nc3ncc(Br)c(NCC4CC4)n3)c2)C1=O (centres unmarked) [Example 74]
8,2.09[b],CCC1COC(=O)N1c1cccc(Nc2ncc(Cl)c(NC3CCC3)n2)c1 (centres unmarked) [Example 35]
9,1.73[b],O=C1COCCN1c1cccc(Nc2ncc(Cl)c(NCC(F)(F)F)n2)c1 [Example 173]
10,1.46[b],COCC(C)Nc1nc(Nc2ccc(N3CCOC3=O)cc2)ncc1Cl (centres unmarked) [Example 12]
11,1.41[b],CC(C)Nc1nc(Nc2cccc(N3CCOCC3=O)c2)ncc1Cl [Example 143]
12,2.38[b],CC(C)[C@H]1COC(=O)N1c1cccc(Nc2ncc(Cl)c(NC3CCC3)n2)c1 [Example 100]
13,3.29[b],O=C1CCCN1c1cccc(Nc2ncc(C(F)(F)F)c(N3CCCCC3)n2)c1 [Example 320]
14,1.51[b],O=C1COCCN1c1cccc(Nc2ncc(Br)c(NCC(F)F)n2)c1 [Example 166]
15,2.5[b],CC(C)C1COC(=O)N1c1cccc(Nc2ncc(Br)c(NCC(F)F)n2)c1 (centres unmarked) [Example 130]
16,1.81[b],CC1COC(=O)N1c1cccc(Nc2ncc(Cl)c(NCC(F)F)n2)c1 (centres unmarked) [Example 155]
17,2.75[b],CCC1CCC(=O)N1c1cccc(Nc2ncc(C(F)(F)F)c(NC3CC3)n2)c1 (centres unmarked) [Example 255]
18,2.48[b],CC(CF)Nc1nc(Nc2cccc(N3CCCC3=O)c2)ncc1C(F)(F)F (centres unmarked) [Example 298]
19,1.82[b],O=C1N(CCCl)CCN1c1cccc(Nc2ncc(Cl)c(NC3CC3)n2)c1 [Example 286]
20,1.63[b],CN(c1cccc(N2CCCC2=O)c1)c1ncc(Cl)c(NC2CCC2)n1 [Example 83]
21,1.8[b],O=C1OCCN1c1cccc(Nc2ncc(Br)c(NC3CCC3)n2)c1 [Example 72]
22,1.71[b],O=c1ccccn1-c1cccc(Nc2ncc(Br)c(NC3CCC3)n2)c1 [Example 221]
23,1.61[b],CC(C)Nc1nc(Nc2ccc(N3C(=O)OCC3C)cc2)ncc1Cl (centres unmarked) [Example 142]

row,Structure (SMILES),log p
1,CC1CC(C)N(c2cccc(Nc3ncc(Cl)c(NCC(F)F)n3)c2)C1=O (centres unmarked) [Example 157],2.11[b]
2,CC1CC(=O)N(c2cccc(Nc3ncc(Cl)c(NC4CC4)n3)c2)C1 (centres unmarked) [Example 96],1.75[b]
3,CC1CC(C)N(c2cccc(Nc3ncc(Br)c(NC4CCC4)n3)c2)C1=O (centres unmarked) [Example 85],2.3[b]
4,COCC(C)Nc1nc(Nc2cccc(N3C(=O)CC(C)C3=O)c2)ncc1Br (centres unmarked) [Example 70],1.68[b]
5,CC(C)Nc1nc(Nc2cccc(N3C(=O)CCC3C)c2)ncc1Cl (centres unmarked) [Example 144],1.66[b]
6,CC1(C)CC(=O)N(c2cccc(Nc3ncc(C(F)(F)F)c(NC4CCC4)n3)c2)C1=O [Example 192],3.03[b]
7,CC(C)Nc1nc(Nc2cccc(N3C(=O)CC(C)C3=O)c2)ncc1Cl (centres unmarked) [Example 145],1.59[b]
8,CC1CCC(=O)N1c1cccc(Nc2ncc(Cl)c(NC3CCC3)n2)c1 (centres unmarked) [Example 37],1.83[b]
9,O=C1CCCN1c1cccc(Nc2ncc(C(F)(F)F)c(NC3CCCC3)n2)c1 [Example 303],3.04[b]
10,CC1(C)CC(=O)N(c2cccc(Nc3ncc(Br)c(NCC(F)F)n3)c2)C1=O [Example 164],2.08[b]
